Test results: ChEMBL document CHEMBL1201862, “PubChem BioAssay data set” (2004)
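Exposure lasted 48 hours, with cells grown in 96-well plates and compounds tested at five concentrations. GI50: concentration for 50% inhibition of growth.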 Active and inactive are the calls of the source. Rule as the data show it: active = GI50 up to about 1.1 µM and inactive = higher.

Assays:
Experiment in all cases: DTP human tumour cell line panel, 48 h
CAKI-1 = system: CAKI-1
HT-29 = system: HT-29
SF-268 = system: SF-268
SK-OV-3 = system: SK-OV-3
OVCAR-3 = system: OVCAR-3
EKVX = system: EKVX
NCI/ADR-RES = system: NCI/ADR-RES
SR = system: SR
MDA-MB-231 = system: MDA-MB-231
PC-3 = system: PC-3
OVCAR-5 = system: OVCAR-5
SF-539 = system: SF-539
BT-549 = system: BT-549
HCT-15 = system: HCT-15
MDA-N = system: MDA-N
NCI-H23 = system: NCI-H23
K562 = system: K562
SK-MEL-28 = system: SK-MEL-28
ACHN = system: ACHN
T47D = system: T47D
SF-295 = system: SF-295
RPMI-8226 = system: RPMI-8226
UACC-62 = system: UACC-62
M14 = system: M14
IGROV-1 = system: IGROV-1
MCF7 = system: MCF7
SW-620 = system: SW-620
SK-MEL-2 = system: SK-MEL-2
Malme-3M = system: Malme-3M
SN12C = system: SN12C
SK-MEL-5 = system: SK-MEL-5
KM12 = system: KM12
U-251 = system: U-251
COLO 205 = system: COLO 205
NCI-H522 = system: NCI-H522
OVCAR-4 = system: OVCAR-4
UO-31 = system: UO-31
A498 = system: A498
NCI-H226 = system: NCI-H226
DU-145 = system: DU-145
HCT-116 = system: HCT-116
786-0 = system: 786-0
MDA-MB-435 = system: MDA-MB-435
UACC-257 = system: UACC-257
HOP-62 = system: HOP-62
SNB-19 = system: SNB-19
A549 = system: A549
TK-10 = system: TK-10
Hs-578T = system: Hs-578T
MOLT-4 = system: MOLT-4
LOX IMVI = system: LOX IMVI
CCRF-CEM = system: CCRF-CEM
OVCAR-8 = system: OVCAR-8
NCI-H460 = system: NCI-H460
HCC 2998 = system: HCC 2998
RXF 393 = system: RXF 393
HL-60 = system: HL-60
SNB-75 = system: SNB-75

Structure (SMILES): CN(C(=O)Cc1ccc(Cl)c(Cl)c1)[C@H]1CCCC[C@@H]1[N+]1(C)CCCC1
- GI50 (CAKI-1): > 100 µM (inactive)
- GI50 (HT-29): > 100 µM (inactive)
- GI50 (SF-268): > 100 µM (inactive)
- GI50 (SK-OV-3): > 100 µM (inactive)
- GI50 (OVCAR-3): > 100 µM (inactive)
- GI50 (EKVX): > 100 µM (inactive)
- GI50 (NCI/ADR-RES): > 100 µM (inactive)
- GI50 (SR): > 100 µM (inactive)
- GI50 (MDA-MB-231): > 100 µM (inactive)
- GI50 (PC-3): > 100 µM (inactive)
- GI50 (OVCAR-5): > 100 µM (inactive)
- GI50 (SF-539): > 100 µM (inactive)
- GI50 (BT-549): > 100 µM (inactive)
- GI50 (HCT-15): > 100 µM
- GI50 (MDA-N): > 100 µM (inactive)
- GI50 (NCI-H23): > 100 µM (inactive)
- GI50 (K562): > 100 µM (inactive)
- GI50 (SK-MEL-28): > 100 µM (inactive)
- GI50 (ACHN): > 100 µM (inactive)
- GI50 (T47D): > 100 µM (inactive)
- GI50 (SF-295): > 100 µM (inactive)
- GI50 (RPMI-8226): > 100 µM (inactive)
- GI50 (UACC-62): > 100 µM (inactive)
- GI50 (M14): > 100 µM (inactive)
- GI50 (IGROV-1): > 100 µM (inactive)
- GI50 (MCF7): > 100 µM (inactive)
- GI50 (SW-620): > 100 µM (inactive)
- GI50 (SK-MEL-2): > 100 µM (inactive)
- GI50 (Malme-3M): > 100 µM (inactive)
- GI50 (SN12C): > 100 µM (inactive)
- GI50 (SK-MEL-5): 71.6 µM (inactive)
- GI50 (KM12): > 100 µM (inactive)
- GI50 (U-251): > 100 µM (inactive)
- GI50 (COLO 205): > 100 µM (inactive)
- GI50 (NCI-H522): > 100 µM (inactive)
- GI50 (OVCAR-4): > 100 µM (inactive)
- GI50 (UO-31): > 100 µM (inactive)
- GI50 (A498): > 100 µM (inactive)
- GI50 (NCI-H226): > 100 µM (inactive)
- GI50 (DU-145): > 100 µM (inactive)
- GI50 (HCT-116): > 100 µM (inactive)
- GI50 (786-0): > 100 µM (inactive)
- GI50 (MDA-MB-435): > 100 µM (inactive)
- GI50 (UACC-257): > 100 µM (inactive)
- GI50 (HOP-62): > 100 µM (inactive)
- GI50 (SNB-19): > 100 µM (inactive)
- GI50 (A549): > 100 µM (inactive)
- GI50 (TK-10): > 100 µM (inactive)
- GI50 (Hs-578T): > 100 µM (inactive)
- GI50 (MOLT-4): > 100 µM (inactive)
- GI50 (LOX IMVI): > 100 µM (inactive)
- GI50 (CCRF-CEM): 3.37 µM (inactive)
- GI50 (OVCAR-8): > 100 µM (inactive)

Structure (SMILES): Cc1nc(NC(C)(CO)CO)nc(N/N=C/c2ccc(Cl)cc2)c1C(=O)Nc1ccc(Cl)cc1
- GI50 (CAKI-1): > 100 µM (inactive)
- GI50 (HT-29): > 100 µM (inactive)
- GI50 (SF-268): > 100 µM (inactive)
- GI50 (SK-OV-3): > 100 µM (inactive)
- GI50 (OVCAR-3): > 100 µM (inactive)
- GI50 (EKVX): > 100 µM (inactive)
- GI50 (NCI/ADR-RES): > 100 µM (inactive)
- GI50 (SR): > 10 µM (inactive)
- GI50 (MDA-MB-231): > 100 µM (inactive)
- GI50 (PC-3): > 100 µM (inactive)
- GI50 (NCI-H460): > 100 µM (inactive)
- GI50 (HCC 2998): > 100 µM (inactive)
- GI50 (OVCAR-5): > 100 µM (inactive)
- GI50 (SF-539): > 100 µM (inactive)
- GI50 (BT-549): > 100 µM (inactive)
- GI50 (HCT-15): > 100 µM
- GI50 (MDA-N): > 100 µM (inactive)
- GI50 (NCI-H23): > 100 µM (inactive)
- GI50 (K562): > 100 µM (inactive)
- GI50 (RXF 393): 28.4 µM (inactive)
- GI50 (SK-MEL-28): > 100 µM (inactive)
- GI50 (ACHN): 47.9 µM (inactive)
- GI50 (T47D): > 100 µM (inactive)
- GI50 (SF-295): > 100 µM (inactive)
- GI50 (HL-60): > 100 µM (inactive)
- GI50 (RPMI-8226): > 100 µM (inactive)
- GI50 (UACC-62): 59.8 µM (inactive)
- GI50 (M14): > 100 µM (inactive)
- GI50 (IGROV-1): > 100 µM (inactive)
- GI50 (MCF7): 51.1 µM (inactive)
- GI50 (SW-620): > 100 µM (inactive)
- GI50 (SK-MEL-2): > 100 µM (inactive)
- GI50 (Malme-3M): > 100 µM (inactive)
- GI50 (SN12C): > 100 µM (inactive)
- GI50 (KM12): 86.7 µM (inactive)
- GI50 (U-251): 74.8 µM (inactive)
- GI50 (COLO 205): > 100 µM (inactive)
- GI50 (NCI-H522): 48.1 µM (inactive)
- GI50 (OVCAR-4): > 100 µM (inactive)
- GI50 (UO-31): > 100 µM (inactive)
- GI50 (NCI-H226): > 100 µM (inactive)
- GI50 (DU-145): > 100 µM (inactive)
- GI50 (HCT-116): 80.2 µM (inactive)
- GI50 (786-0): > 100 µM (inactive)
- GI50 (MDA-MB-435): > 100 µM (inactive)
- GI50 (UACC-257): > 100 µM (inactive)
- GI50 (HOP-62): > 100 µM (inactive)
- GI50 (SNB-19): > 100 µM (inactive)
- GI50 (A549): 77.3 µM (inactive)
- GI50 (SNB-75): > 100 µM (inactive)
- GI50 (TK-10): > 100 µM (inactive)
- GI50 (Hs-578T): > 100 µM (inactive)
- GI50 (MOLT-4): 65.5 µM (inactive)
- GI50 (LOX IMVI): > 100 µM (inactive)
- GI50 (CCRF-CEM): 42.9 µM (inactive)
- GI50 (OVCAR-8): > 100 µM (inactive)
